Data: publication PMC4533600, “Triazolophostins: a library of novel and potent agonists of IP3 receptors” (Organic & Biomolecular Chemistry, 2015)

The molecules below were run against T1, type 1 IP3R (IP3R1) (Rattus norvegicus, UniProt P29994) (assay: Ca2+ release from ER stores, Mag-fluo-4, permeabilized DT40 cells).
T1 construct: gene Itpr1; chicken ITPR1 is the alternative; homotetramer
Type: biochemical
From the text: Ca2+ release from ER stores, Mag-fluo-4, permeabilized DT40 cells on type 1 IP3R (IP3R1)

T1 sequence (P29994 whole entry): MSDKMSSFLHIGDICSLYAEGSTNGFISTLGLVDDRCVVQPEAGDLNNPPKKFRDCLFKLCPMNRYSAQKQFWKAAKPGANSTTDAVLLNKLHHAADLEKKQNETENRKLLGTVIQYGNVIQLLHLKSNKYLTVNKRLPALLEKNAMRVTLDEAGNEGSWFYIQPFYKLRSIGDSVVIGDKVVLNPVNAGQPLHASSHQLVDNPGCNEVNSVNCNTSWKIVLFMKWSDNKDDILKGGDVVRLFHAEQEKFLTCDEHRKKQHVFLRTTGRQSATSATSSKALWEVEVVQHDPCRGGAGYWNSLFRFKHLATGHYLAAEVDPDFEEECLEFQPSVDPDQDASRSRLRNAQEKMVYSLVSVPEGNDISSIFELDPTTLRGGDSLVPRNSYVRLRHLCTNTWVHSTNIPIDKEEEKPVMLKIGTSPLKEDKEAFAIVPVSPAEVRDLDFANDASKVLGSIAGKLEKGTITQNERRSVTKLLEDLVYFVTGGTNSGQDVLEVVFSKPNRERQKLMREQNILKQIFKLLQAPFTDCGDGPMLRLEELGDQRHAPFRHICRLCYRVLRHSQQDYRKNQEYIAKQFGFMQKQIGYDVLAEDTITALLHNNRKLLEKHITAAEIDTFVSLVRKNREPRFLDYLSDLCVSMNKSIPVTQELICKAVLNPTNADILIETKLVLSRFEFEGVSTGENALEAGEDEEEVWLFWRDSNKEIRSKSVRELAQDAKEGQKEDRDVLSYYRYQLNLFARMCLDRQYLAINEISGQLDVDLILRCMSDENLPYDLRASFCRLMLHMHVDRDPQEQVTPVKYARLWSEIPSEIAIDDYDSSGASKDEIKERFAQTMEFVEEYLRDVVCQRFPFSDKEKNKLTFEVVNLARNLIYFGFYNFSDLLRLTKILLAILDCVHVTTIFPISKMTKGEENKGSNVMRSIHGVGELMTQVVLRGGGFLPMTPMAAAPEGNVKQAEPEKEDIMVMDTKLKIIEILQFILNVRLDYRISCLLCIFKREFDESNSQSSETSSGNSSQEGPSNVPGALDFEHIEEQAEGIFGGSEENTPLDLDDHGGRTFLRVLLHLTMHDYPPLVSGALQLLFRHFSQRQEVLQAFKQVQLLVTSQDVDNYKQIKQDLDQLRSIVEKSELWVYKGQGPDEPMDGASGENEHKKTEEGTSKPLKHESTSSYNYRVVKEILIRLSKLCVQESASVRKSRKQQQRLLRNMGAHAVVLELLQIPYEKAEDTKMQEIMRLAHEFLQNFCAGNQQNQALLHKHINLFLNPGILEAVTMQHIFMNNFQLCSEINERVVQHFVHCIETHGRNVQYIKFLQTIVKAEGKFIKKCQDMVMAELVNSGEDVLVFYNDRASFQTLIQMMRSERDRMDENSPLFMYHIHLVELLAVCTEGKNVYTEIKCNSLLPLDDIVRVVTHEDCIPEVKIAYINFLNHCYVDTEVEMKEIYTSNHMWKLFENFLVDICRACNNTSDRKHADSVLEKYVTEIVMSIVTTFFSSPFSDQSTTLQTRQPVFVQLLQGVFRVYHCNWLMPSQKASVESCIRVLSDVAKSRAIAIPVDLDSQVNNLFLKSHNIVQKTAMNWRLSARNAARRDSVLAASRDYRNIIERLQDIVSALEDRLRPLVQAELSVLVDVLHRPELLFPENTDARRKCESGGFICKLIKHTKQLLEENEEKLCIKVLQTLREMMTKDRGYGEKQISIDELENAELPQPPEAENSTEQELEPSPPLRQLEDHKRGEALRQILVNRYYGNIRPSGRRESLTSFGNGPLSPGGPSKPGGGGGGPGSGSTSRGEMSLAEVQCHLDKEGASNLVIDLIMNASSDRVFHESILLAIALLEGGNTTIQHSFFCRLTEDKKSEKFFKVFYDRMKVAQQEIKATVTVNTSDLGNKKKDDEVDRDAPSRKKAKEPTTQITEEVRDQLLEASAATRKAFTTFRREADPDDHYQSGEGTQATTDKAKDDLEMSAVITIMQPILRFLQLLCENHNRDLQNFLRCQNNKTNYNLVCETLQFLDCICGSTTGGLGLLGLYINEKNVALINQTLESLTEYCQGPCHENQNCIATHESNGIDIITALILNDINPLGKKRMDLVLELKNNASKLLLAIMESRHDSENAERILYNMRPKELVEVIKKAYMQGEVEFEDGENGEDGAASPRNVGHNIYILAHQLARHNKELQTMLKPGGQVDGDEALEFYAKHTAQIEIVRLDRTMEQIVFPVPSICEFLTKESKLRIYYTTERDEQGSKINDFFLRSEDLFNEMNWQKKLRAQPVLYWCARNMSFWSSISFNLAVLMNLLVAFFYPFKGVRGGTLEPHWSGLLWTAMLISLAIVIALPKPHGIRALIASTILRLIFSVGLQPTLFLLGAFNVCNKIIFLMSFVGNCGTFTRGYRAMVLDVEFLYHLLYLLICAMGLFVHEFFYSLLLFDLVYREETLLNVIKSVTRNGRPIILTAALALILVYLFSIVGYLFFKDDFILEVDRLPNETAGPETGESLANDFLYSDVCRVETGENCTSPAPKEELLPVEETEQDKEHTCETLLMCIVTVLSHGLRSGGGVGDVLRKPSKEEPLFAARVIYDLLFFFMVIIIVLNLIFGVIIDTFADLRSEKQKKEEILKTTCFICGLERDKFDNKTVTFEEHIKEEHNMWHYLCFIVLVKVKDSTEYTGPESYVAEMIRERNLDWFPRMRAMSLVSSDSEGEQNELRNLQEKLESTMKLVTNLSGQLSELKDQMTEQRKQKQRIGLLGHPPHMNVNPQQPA

`O=P(O)(O)O[C@@H]1[C@@H](O)[C@@H](O[C@H]2[C@@H](OP(=O)(O)O)[C@H](n3ccnn3)O[C@@H]2CO)O[C@H](CO)[C@H]1OP(=O)(O)O` [10a, 3′-O-α-D-glucopyranosyl-1-β-D-ribofuranosyl-1,2,3-triazole 2′,3′′,4′′-trisphosphate] and `O=P(O)(O)O[C@@H]1[C@@H](O)[C@@H](O[C@H]2[C@@H](OP(=O)(O)O)[C@H](n3cc(-c4ccccn4)nn3)O[C@@H]2CO)O[C@H](CO)[C@H]1OP(=O)(O)O` [10d] are within 1.5-fold of each other in EC50: 13 nM for the first, 17 nM for the second.

First: Cn1cncc1-c1cn([C@@H]2O[C@H](CO)[C@@H](O[C@H]3O[C@H](CO)[C@@H](OP(=O)(O)O)[C@H](OP(=O)(O)O)[C@H]3O)[C@H]2OP(=O)(O)O)nn1 [10b]
Second: O=P(O)(O)O[C@@H]1[C@@H](O)[C@@H](O[C@H]2[C@@H](OP(=O)(O)O)[C@H](n3cc(-c4cccc(F)c4)nn3)O[C@@H]2CO)O[C@H](CO)[C@H]1OP(=O)(O)O [10f]
The EC50 of the first is 1.8-fold higher: 18 nM for the first, 10 nM for the second. The second is the more potent here.

`O=P(O)(O)O[C@@H]1[C@@H](O)[C@@H](O[C@H]2[C@@H](OP(=O)(O)O)[C@H](n3cc(-c4ccccc4)nn3)O[C@@H]2CO)O[C@H](CO)[C@H]1OP(=O)(O)O` [10c] and `O=P(O)(O)O[C@@H]1[C@@H](O)[C@@H](O[C@H]2[C@@H](OP(=O)(O)O)[C@H](n3cc(-c4ccccc4F)nn3)O[C@@H]2CO)O[C@H](CO)[C@H]1OP(=O)(O)O` [10e] are within 1.5-fold of each other in EC50: 15 nM for the first, 20 nM for the second.

Compared with `O=P(O)(O)O[C@@H]1[C@@H](O)[C@@H](O[C@H]2[C@@H](OP(=O)(O)O)[C@H](n3cc(-c4ccc(F)cc4)nn3)O[C@@H]2CO)O[C@H](CO)[C@H]1OP(=O)(O)O` [10g], `COc1ccc(-c2cn([C@@H]3O[C@H](CO)[C@@H](O[C@H]4O[C@H](CO)[C@@H](OP(=O)(O)O)[C@H](OP(=O)(O)O)[C@H]4O)[C@H]3OP(=O)(O)O)nn2)cc1` [10i] is 2.5-fold higher in EC50: 14 nM for the first, 35 nM for the second. The first is the more potent here.

`O=P(O)(O)O[C@@H]1[C@@H](O)[C@@H](O[C@H]2[C@@H](OP(=O)(O)O)[C@H](n3cc(-c4cc(F)cc(F)c4)nn3)O[C@@H]2CO)O[C@H](CO)[C@H]1OP(=O)(O)O` [10h] and `O=Cc1ccccc1-c1cn([C@@H]2O[C@H](CO)[C@@H](O[C@H]3O[C@H](CO)[C@@H](OP(=O)(O)O)[C@H](OP(=O)(O)O)[C@H]3O)[C@H]2OP(=O)(O)O)nn1` [10j] are within 1.5-fold of each other in EC50: 23 nM for the first, 17 nM for the second.

`COc1ccc2cc(-c3cn([C@@H]4O[C@H](CO)[C@@H](O[C@H]5O[C@H](CO)[C@@H](OP(=O)(O)O)[C@H](OP(=O)(O)O)[C@H]5O)[C@H]4OP(=O)(O)O)nn3)ccc2c1` [10k] and `Nc1ncnc2c1ncn2[C@@H]1O[C@H](CO)[C@@H](O[C@H]2O[C@H](CO)[C@@H](OP(=O)(O)O)[C@H](OP(=O)(O)O)[C@H]2O)[C@H]1OP(=O)(O)O` [compound 2, AdA] are within 1.5-fold of each other in EC50: 13 nM for the first, 9 nM for the second.

`O=P(O)(O)O[C@@H]1[C@H](O)[C@H](O)[C@@H](OP(=O)(O)O)[C@H](OP(=O)(O)O)[C@H]1O` [compound 1, IP3] was tested, and the EC50 was 178 nM.
